Drawing on patent US8759333B2, “Di-azetidinyl diamide as monoacylglycerol lipase inhibitors” (Janssen Pharmaceutica, NV, priority 2010, dated 2014), this text covers IC50 and activity for 26 compounds.

The IC50 is the concentration needed to halve the response being measured.

The target in the first assay is T1, mutant MGL (mut-MGLL 11-313 L179S L186S) (Homo sapiens, UniProt Q99685, L169S/L176S).
T1 construct: purified mutant MGL (mut-MGLL 11-313 L179S L186S)
T1 sequence (Q99685 1-303 L169S/L176S): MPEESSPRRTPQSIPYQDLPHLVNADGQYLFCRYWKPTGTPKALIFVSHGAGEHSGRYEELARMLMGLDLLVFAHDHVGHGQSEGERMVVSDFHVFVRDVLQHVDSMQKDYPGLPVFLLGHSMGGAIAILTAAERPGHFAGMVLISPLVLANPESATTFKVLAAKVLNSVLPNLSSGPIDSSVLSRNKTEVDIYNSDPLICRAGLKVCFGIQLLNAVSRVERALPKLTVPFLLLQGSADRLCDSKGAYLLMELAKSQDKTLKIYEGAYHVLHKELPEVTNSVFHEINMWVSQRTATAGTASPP
Put plainly: MGL Enzyme Activity Assay, purified mutant MGL, 4MU-B substrate. Type of assay: biochemical. The conditions noted are these: mutant MGL 5 nM, 4MU-B 10 μM, 37° C.; read-out: MGL mutant inh IC50. On the procedure:
All rate-based assays were performed in black 384-well polypropylene PCR microplates (Abgene) in a total volume of 30 μL. Substrate 4-methylumbelliferyl butyrate (4MU-B; Sigma) and either purified mutant MGL (mut-MGLL 11-313 L179S L186S) or purified wild type MGL (wt-MGLL 6H-11-313) were diluted separately into 20 mM PIPES buffer (pH=7.0), containing 150 mM NaCl and 0.001% Tween 20. Compounds of Formula (I), including Formulas I(a), I(b), and I(c), were pre-dispensed (50 nL) into the assay plate using a Cartesian Hummingbird prior to adding 4MU-B (25 μL of 1.2× solution to a final concentration of 10 μM) followed by enzyme (5 μL of a 6× solution to a final concentration of 5 nM) to initiate the reaction. Final compound concentrations ranged from 17 to 0.0003 μM. The fluorescence change due to 4MU-B cleavage was monitored with excitation and emission wavelengths of 335 and 440 nm, respectively, and a bandwidth of 10 nm (Safire^2, Tecan) at 37° C. for 5 min.
The IC50 values for the following compounds were determined using Microsoft Office Excel from a fit of the equation to the concentration-response plot of the fractional activity as a function of inhibitor concentration.
On to `O=C(NC1CN(C2CN(C(=O)c3ccc4cc(-c5ccccc5)ccc4c3)C2)C1)c1nccs1` [Cpd 21, N-{1′-[(6-Phenylnaphthalen-2-yl)carbonyl]-1,3′-biazetidin-3-yl}-1,3-thiazole-2-carboxamide], for which the IC50 is 69 nM.
On the same count and under the same terms, next, `Cc1c(C(=O)N2CC(N3CC(NC(=O)c4ccccc4)C3)C2)sc2ccc(Cl)cc12` [Cpd 36, N-{1′-[(5-Chloro-3-methyl-1-benzothiophen-2-yl)carbonyl]-1,3′-biazetidin-3-yl}benzamide]: 458 nM.
Take `O=C(NC1CN(C2CN(C(=O)c3ccc4c(-c5ccccc5)cccc4c3)C2)C1)c1ccccc1` [Cpd 25, N-{1′-[(5-Phenylnaphthalen-2-yl)carbonyl]-1,3′-biazetidin-3-yl}benzamide]: the IC50 was 154 nM.
Still for that read-out and setting: then `O=C(c1ccc(-c2cc3ccccc3s2)cc1)N1CC(N2CC(N3Cc4ccccc4C3=O)C2)C1` [Cpd 95, 2-(1′-{[4-(1-Benzothiophen-2-yl)phenyl]carbonyl}-1,3′-biazetidin-3-yl)-2,3-dihydro-1H-isoindol-1-one], with 750 nM; and `O=C(NC1CN(C2CN(C(=O)c3ccc4nc(-c5ccccc5)sc4c3)C2)C1)c1cscn1` [Cpd 22, N-{1′-[(2-Phenyl-1,3-benzothiazol-6-yl)carbonyl]-1,3′-biazetidin-3-yl}-1,3-thiazole-4-carboxamide], with 86 nM.
Still for that read-out and setting: next, `O=C(NC1CN(C2CN(C(=O)c3ccc(-c4ccccc4)cc3)C2)C1)c1nccs1` [Cpd 29, N-[1′-(Biphenyl-4-ylcarbonyl)-1,3′-biazetidin-3-yl]-1,3-thiazole-2-carboxamide]: 184 nM.
Same read-out and setting: next, `O=C(NC1CN(C2CN(C(=O)c3ccc4nc(-c5ccccc5)oc4c3)C2)C1)c1ccccc1` [Cpd 41, N-{1′-[(2-Phenyl-1,3-benzoxazol-6-yl)carbonyl]-1,3′-biazetidin-3-yl}benzamide]: 939 nM; `O=C(NC1CN(C2CN(C(=O)c3ccc4c(Br)cccc4c3)C2)C1)c1nccs1` [Cpd 19, N-{1′-[(5-Bromonaphthalen-2-yl)carbonyl]-1,3′-biazetidin-3-yl}-1,3-thiazole-2-carboxamide]: 63 nM.
Turning to `O=C(NC1CN(C2CN(C(=O)c3ccc(Oc4ccccc4)cc3)C2)C1)c1nccs1` [Cpd 32, N-{1′-[(4-Phenoxyphenyl)carbonyl]-1,3′-biazetidin-3-yl}-1,3-thiazole-2-carboxamide], the IC50 is 287 nM.
For `O=C(c1ccc2cc(Br)ccc2c1)N1CC(N2CC(N3Cc4ccccc4C3=O)C2)C1` [Cpd 90, 2-{1′-[(6-Bromonaphthalen-2-yl)carbonyl]-1,3′-biazetidin-3-yl}-2,3-dihydro-1H-isoindol-1-one], the IC50 is 154 nM.
Consider `O=C(NC1CN(C2CN(C(=O)c3ccc4nc(-c5cccc(C(F)(F)F)c5)oc4c3)C2)C1)c1nccs1` [Cpd 28, N-[1′-({2-[3-(Trifluoromethyl)phenyl]-1,3-benzoxazol-6-yl}carbonyl)-1,3′-biazetidin-3-yl]-1,3-thiazole-2-carboxamide], for which the IC50 amounted to 180 nM.
Regarding `O=C(NC1CN(C2CN(C(=O)c3cc4ccc(Br)cc4s3)C2)C1)c1nccs1` [Cpd 23, N-{1′-[(6-Bromo-1-benzothiophen-2-yl)carbonyl]-1,3′-biazetidin-3-yl}-1,3-thiazole-2-carboxamide], the IC50 amounted to 93 nM.
On the same count and under the same terms, next, `O=C(c1ccc2c(Br)cccc2c1)N1CC(N2CC(N3Cc4ccccc4C3=O)C2)C1` [Cpd 83, 2-{1′-[(5-Bromonaphthalen-2-yl)carbonyl]-1,3′-biazetidin-3-yl}-2,3-dihydro-1H-isoindol-1-one]: 23 nM; `O=C(NC1CN(C2CN(C(=O)c3ccc4cc(Br)ccc4c3)C2)C1)c1ccccc1` [Cpd 42, N-{1′-[(6-Bromonaphthalen-2-yl)carbonyl]-1,3′-biazetidin-3-yl}benzamide]: 997 nM.
`O=C(c1ccccc1)c1ccc(C(=O)N2CC(N3CC(NC(=O)c4nccs4)C3)C2)cc1` [Cpd 38, N-(1′-{[4-(Phenylcarbonyl)phenyl]carbonyl}-1,3′-biazetidin-3-yl)-1,3-thiazole-2-carboxamide]: the IC50 came out at 588 nM.
As for `O=C(NC1CN(C2CN(C(=O)c3ccc4oc(-c5ccccc5)nc4c3)C2)C1)c1nccs1` [Cpd 35, N-{1′-[(2-Phenyl-1,3-benzoxazol-5-yl)carbonyl]-1,3′-biazetidin-3-yl}-1,3-thiazole-2-carboxamide], the IC50 was 341 nM.
Still for that read-out and setting: next, `O=C(NC1CN(C2CN(C(=O)c3ccc4cc(Br)ccc4c3)C2)C1)c1nccs1` [Cpd 40, N-{1′-[(6-Bromonaphthalen-2-yl)carbonyl]-1,3′-biazetidin-3-yl}-1,3-thiazole-2-carboxamide]: 882 nM; `O=C(NC1CN(C2CN(C(=O)c3ccc4nc(-c5ccc(Cl)cc5)oc4c3)C2)C1)c1nccs1` [Cpd 33, N-(1′-{[2-(4-Chlorophenyl)-1,3-benzoxazol-6-yl]carbonyl}-1,3′-biazetidin-3-yl)-1,3-thiazole-2-carboxamide]: 303 nM.
On the same count and under the same terms, next, `CN(C(=O)c1nccs1)C1CN(C2CN(C(=O)c3cc4ccc(C(F)(F)F)cc4s3)C2)C1` [Cpd 37, N-Methyl-N-(1′-{[6-(trifluoromethyl)-1-benzothiophen-2-yl]carbonyl}-1,3′-biazetidin-3-yl)-1,3-thiazole-2-carboxamide]: 476 nM; `O=C(NC1CN(C2CN(C(=O)c3ccc4nc(-c5ccc(C(F)(F)F)cc5)oc4c3)C2)C1)c1nccs1` [Cpd 30, N-[1′-({2-[4-(Trifluoromethyl)phenyl]-1,3-benzoxazol-6-yl}carbonyl)-1,3′-biazetidin-3-yl]-1,3-thiazole-2-carboxamide]: 264 nM; `O=C(c1ccc(Br)cc1)N1CC(N2CC(N3Cc4ccccc4C3=O)C2)C1` [Cpd 96, 2-{1′-[(4-Bromophenyl)carbonyl]-1,3′-biazetidin-3-yl}-2,3-dihydro-1H-isoindol-1-one]: 4670 nM.
The same measure, in the same setting: then `O=C(NC1CN(C2CN(C(=O)c3ccc4cc(-c5ccccc5)ccc4c3)C2)C1)c1ccccc1` [Cpd 34, N-{1′-[(6-Phenylnaphthalen-2-yl)carbonyl]-1,3′-biazetidin-3-yl}benzamide], with 332 nM; and `O=C(NC1CN(C2CN(C(=O)c3cc4ccc(-c5ccccc5)cc4s3)C2)C1)c1nccs1` [Cpd 6, N-{1′-[(6-Phenyl-1-benzothiophen-2-yl)carbonyl]-1,3′-biazetidin-3-yl}-1,3-thiazole-2-carboxamide], with 8 nM; and `O=C(NC1CN(C2CN(C(=O)c3cc4cc(C(F)(F)F)ccc4s3)C2)C1)c1ccccc1` [Cpd 44, N-(1′-{[5-(Trifluoromethyl)-1-benzothiophen-2-yl]carbonyl}-1,3′-biazetidin-3-yl)benzamide], with 1830 nM.
For the compound `O=C(c1ccc(N2CCCCC2)cc1)N1CC(N2CC(N3Cc4ccccc4C3=O)C2)C1` [Cpd 91, 2-{1′-[(4-Piperidin-1-ylphenyl)carbonyl]-1,3′-biazetidin-3-yl}-2,3-dihydro-1H-isoindol-1-one], the IC50 is 236 nM.
On the same count and under the same terms, next, `O=C(NC1CN(C2CN(C(=O)c3ccc(Cc4ccc(C(F)(F)F)cc4)cc3)C2)C1)c1ccccc1` [Cpd 26, N-[1′-({4-[4-(Trifluoromethyl)benzyl]phenyl}carbonyl)-1,3′-biazetidin-3-yl]benzamide]: 157 nM.

For another assay, the target named is T2, MGL (Rattus norvegicus, UniProt Q8R431).
T2 construct: one g rat brain was homogenized using a Polytron homogenizer; from tissue; host or cells: rat brain homogenate
T2 sequence (Q8R431 1-303): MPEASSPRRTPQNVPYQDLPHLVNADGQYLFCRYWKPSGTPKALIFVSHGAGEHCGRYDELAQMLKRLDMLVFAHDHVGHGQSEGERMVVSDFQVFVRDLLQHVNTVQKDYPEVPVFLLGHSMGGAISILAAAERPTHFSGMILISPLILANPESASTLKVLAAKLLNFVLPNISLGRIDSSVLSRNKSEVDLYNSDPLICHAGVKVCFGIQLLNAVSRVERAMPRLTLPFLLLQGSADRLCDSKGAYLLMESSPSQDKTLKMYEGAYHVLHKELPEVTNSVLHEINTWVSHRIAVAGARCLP
The assay is described as follows: 2-AG Accumulation Assay in rat brain homogenate. Particulars: compound @10 µM, percent of vehicle, read-out: Rat Brain 2AG % VehCntrl (%) @10 µM. Type of assay: biochemical.
As for `O=C(NC1CN(C2CN(C(=O)c3ccc4cc(-c5ccccc5)ccc4c3)C2)C1)c1nccs1` [Cpd 21, N-{1′-[(6-Phenylnaphthalen-2-yl)carbonyl]-1,3′-biazetidin-3-yl}-1,3-thiazole-2-carboxamide], the activity at 10 µM came to 581%.
As for `O=C(NC1CN(C2CN(C(=O)c3ccc4c(Br)cccc4c3)C2)C1)c1nccs1` [Cpd 19, N-{1′-[(5-Bromonaphthalen-2-yl)carbonyl]-1,3′-biazetidin-3-yl}-1,3-thiazole-2-carboxamide], the activity at 10 µM came out at 418%.
`O=C(NC1CN(C2CN(C(=O)c3cc4ccc(Br)cc4s3)C2)C1)c1nccs1` [Cpd 23, N-{1′-[(6-Bromo-1-benzothiophen-2-yl)carbonyl]-1,3′-biazetidin-3-yl}-1,3-thiazole-2-carboxamide]: the activity at 10 µM amounted to 343%.
Same read-out and setting: then `O=C(c1ccc2c(Br)cccc2c1)N1CC(N2CC(N3Cc4ccccc4C3=O)C2)C1` [Cpd 83, 2-{1′-[(5-Bromonaphthalen-2-yl)carbonyl]-1,3′-biazetidin-3-yl}-2,3-dihydro-1H-isoindol-1-one], with 416%.
